# Paper PMC4018403, “Transient Receptor Potential Ankyrin 1 Receptor Activation In Vitro and In Vivo by Pro-tussive Agents: GRC 17536 as a Promising Anti-Tussive Therapeutic” (PLoS ONE, 2014)
# Entries after “also recorded” stand apart in the source; their conditions may differ.
# Columns and labels:
# TRPA1 [1] = target: T1, TRPA1 (Homo sapiens, UniProt O75762); assay: Citric acid-induced Ca+2 influx in CCD19-Lu cells; assay type: cell-based; design: A549 cells have been reported to express endogenous TRPA1; host or cells: A549
# Procedure: (§1) Human lung fibroblast cells, CCD19-Lu (ATCC CCL-210) were obtained from American Type Culture Collection (ATCC; Rockville, MD, USA) and cultured in MEM supplemented with 10% FBS. Human pulmonary alveolar epithelial cell line A549 (ATCC CCL-185) was also obtained from ATCC and maintained in DMEM F-12 supplemented with 10% FBS. Both the cell types were cultured at 37°C in humidified air containing 5% CO2. Chinese hamster ovary (CHO) cells stably expressing human TRPA1 (hTRPA1/CHO), TRPV1 (hTRPV1/CHO), TRPV3 (hTRPV3/CHO), TRPV4 (hTRPV4/CHO and TRPM8 (hTRPM8/CHO were generated in-house and maintained in DMEM F-12 supplemented with 10% FBS and G418.
# (§2) Fluorimetric and radiometric Ca^+2 influx assay was performed as described earlier. GRC 17536, GRC 17770, compound 7 or GRC 6211 was added to the cells 15 minutes prior to addition of agonist. Citric acid stock solution (1 M) was prepared in dH2O. Subsequent dilutions were made in Ca^+2, Mg^+2 free PBS (pH 7.3). No significant change in pH was observed upto 10 mM citric acid. At 30 mM concentration of citric acid, the pH of the solution dropped to 5.5. TLR ligands - LPS (10 µg/ml, TLR4), loxoribine (10 µM, TLR7) and ssRNA40 (1 µg/ml, TLR8) were dissolved in media and added to the cells for 16–18 hours. TRP selectivity of GRC 17536 and compound 7 was performed for TRPV1, TRPV3, TRPV4 and TRPM8 using Capsaicin (1 µM), 2-APB (1 mM), 4α-PDD (30 µM) and Icilin (250 nM) respectively, as agonist.
# TRPV1 = target: T2, TRPV1 (Homo sapiens, UniProt Q8NER1); assay: Citric acid effect on Ca+2 influx in hTRPV1/CHO cells; assay type: cell-based; details: data not shown
# T2 construct: expressed in transfected cells
# Procedure: as §1
# as §2, with “TRP selectivity of GRC 17536 and compound 7 was performed for TRPV1, TRPV3, TRPV4 and TRPM8 using Capsaicin (1 µM), 2-APB (1 mM), 4α-PDD (30 µM) and Icilin (250 nM) respectively, as agonist.” left out
# TRPA1 [2] = target: T1, TRPA1; assay: Citric acid-induced Ca+2 influx in hTRPA1/CHO cells; assay type: cell-based; design: expressed in transfected cells
# Procedure: as §1, §2
# TRPA1 [3] = target: T1, TRPA1; assay: Citric acid-induced Ca+2 influx in A549 cells; assay type: cell-based; design: A549 cells have been reported to express endogenous TRPA1; host or cells: A549
# Procedure: as §1, §2
# [4] = test system: citric acid induced cough response; assay: Citric acid induced conscious cough model; assay type: in vivo, guinea pig; details: 30 mg/kg i.p., 2 h before citric acid aerosol (0.4 M)
# Procedure: Male Hartley guinea pigs (200–600 g, Harlan, UK) were acclimatized in cages (20–22°C, with a light/dark cycle of 12/12 hours) before beginning of the experiments and were maintained on an ad lib standard guinea pig pellet diet and water containing dietary amounts of ascorbic acid.
# Cough was detected both by pressure change and by sound and recorded with a Buxco cough analyzer (Buxco, Wilmington, NC, USA) as described earlier. Guinea pigs were randomly assigned to various test groups and were treated with different doses of GRC 17536 or Dextromethorphan i.p. before tussive challenge. The Vehicle control group received only 0.5% methyl cellulose. Two hours after i.p. administration of vehicle or test compounds, animals were placed in individual whole body plethysmographs and were exposed to citric acid aerosol (0.4 M) and the incidences of cough were recorded for 10 minutes with the help of Buxco cough analyzer.
# For in vitro experiments, data was analyzed using GraphPad Prism 3.0 (GraphPad Software Inc. San Diego, CA, USA). For in vivo experiment, data from the treatment groups were compared with the control group. Mean values were statistically analyzed by one-way analysis of variance (ANOVA) followed by the Dunnett's Multiple Comparisons Test to evaluate significant differences between groups.
# [5] = highest concentration of inducer, one range printed for CCD19-Lu and A549 together
# T1 sequence (O75762 whole entry): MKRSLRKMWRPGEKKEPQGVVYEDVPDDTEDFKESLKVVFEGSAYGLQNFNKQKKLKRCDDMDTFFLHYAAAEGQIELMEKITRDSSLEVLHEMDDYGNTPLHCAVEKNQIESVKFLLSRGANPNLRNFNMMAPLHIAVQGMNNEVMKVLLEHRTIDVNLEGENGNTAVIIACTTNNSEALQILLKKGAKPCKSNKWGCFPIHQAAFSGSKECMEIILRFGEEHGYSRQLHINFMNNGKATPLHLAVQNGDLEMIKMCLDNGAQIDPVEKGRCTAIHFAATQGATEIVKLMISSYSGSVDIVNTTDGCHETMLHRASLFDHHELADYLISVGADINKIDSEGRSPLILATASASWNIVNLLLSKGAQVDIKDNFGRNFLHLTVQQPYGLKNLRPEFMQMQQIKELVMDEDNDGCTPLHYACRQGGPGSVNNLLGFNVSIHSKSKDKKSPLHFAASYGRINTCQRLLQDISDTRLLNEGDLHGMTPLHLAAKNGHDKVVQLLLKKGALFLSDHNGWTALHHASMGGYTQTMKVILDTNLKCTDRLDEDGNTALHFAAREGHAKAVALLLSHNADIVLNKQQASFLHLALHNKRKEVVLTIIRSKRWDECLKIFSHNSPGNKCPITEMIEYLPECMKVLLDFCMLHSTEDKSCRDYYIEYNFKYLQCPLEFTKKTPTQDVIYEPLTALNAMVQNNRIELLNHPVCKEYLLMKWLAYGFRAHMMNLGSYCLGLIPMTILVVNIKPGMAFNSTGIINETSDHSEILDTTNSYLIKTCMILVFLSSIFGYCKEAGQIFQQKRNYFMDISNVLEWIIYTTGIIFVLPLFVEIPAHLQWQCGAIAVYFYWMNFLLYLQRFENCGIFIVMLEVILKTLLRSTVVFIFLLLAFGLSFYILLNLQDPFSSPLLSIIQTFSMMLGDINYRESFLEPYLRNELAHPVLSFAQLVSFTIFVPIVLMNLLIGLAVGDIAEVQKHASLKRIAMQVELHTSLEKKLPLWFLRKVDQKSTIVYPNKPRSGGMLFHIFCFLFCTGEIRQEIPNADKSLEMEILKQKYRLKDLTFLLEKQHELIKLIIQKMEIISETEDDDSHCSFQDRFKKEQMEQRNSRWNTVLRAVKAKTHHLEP
# T2 sequence (Q8NER1 whole entry): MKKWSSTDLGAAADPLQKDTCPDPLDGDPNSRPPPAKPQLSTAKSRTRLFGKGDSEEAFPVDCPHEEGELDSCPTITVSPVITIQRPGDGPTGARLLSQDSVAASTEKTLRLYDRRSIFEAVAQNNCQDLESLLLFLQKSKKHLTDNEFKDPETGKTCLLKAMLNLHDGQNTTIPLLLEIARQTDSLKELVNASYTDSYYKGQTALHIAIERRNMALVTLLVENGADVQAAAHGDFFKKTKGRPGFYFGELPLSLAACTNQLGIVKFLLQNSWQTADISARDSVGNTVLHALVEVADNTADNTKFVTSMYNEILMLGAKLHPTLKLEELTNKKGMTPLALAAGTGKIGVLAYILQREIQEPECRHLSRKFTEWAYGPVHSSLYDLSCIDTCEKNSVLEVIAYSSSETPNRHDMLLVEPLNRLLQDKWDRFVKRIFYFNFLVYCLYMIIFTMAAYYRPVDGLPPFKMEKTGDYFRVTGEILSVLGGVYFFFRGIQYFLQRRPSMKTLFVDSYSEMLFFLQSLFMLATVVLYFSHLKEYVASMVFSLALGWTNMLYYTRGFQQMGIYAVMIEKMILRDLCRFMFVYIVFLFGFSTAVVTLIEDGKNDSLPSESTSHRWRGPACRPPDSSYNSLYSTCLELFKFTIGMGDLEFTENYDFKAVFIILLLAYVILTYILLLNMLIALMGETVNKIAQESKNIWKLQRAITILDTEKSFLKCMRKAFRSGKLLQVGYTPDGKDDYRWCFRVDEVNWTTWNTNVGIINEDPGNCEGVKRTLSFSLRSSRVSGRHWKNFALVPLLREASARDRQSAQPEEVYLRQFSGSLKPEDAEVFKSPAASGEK
SMILES,Citric acid concentration of maximum Ca+2 influx (TRPA1 [1]),Citric acid concentration that elicited a drop in Ca+2 influx (TRPA1 [1]),Induction of Ca+2 influx over basal (TRPA1 [1]; [5]),Ca+2 influx response to citric acid (TRPV1),Citric acid concentration of peak Ca+2 influx (TRPA1 [2]),Citric acid concentration that elicited a drop in Ca+2 influx (TRPA1 [2]),Ca+2 influx over basal (TRPA1 [2]; highest concentration of citric acid),Citric acid concentration of peak Ca+2 influx (TRPA1 [3]),Citric acid concentration that elicited a drop in Ca+2 influx (TRPA1 [3]),Induction of Ca+2 influx over basal (TRPA1 [3]; [5]),Inhibition of cough response [4]
O=C(O)CC(O)(CC(=O)O)C(=O)O [citric acid],10 mM,30 mM,4–20 fold,lack of any significant response; also recorded: did not observe any increase,3 mM,10 mM,~40 fold,3 mM,5 mM,4–20 fold,–
"COc1ccc2c(c1)[C@]13CCCC[C@@H]1[C@H](C2)N(C)CC3 [Dextromethorphan, reference compound]",–,–,–,–,–,–,–,–,–,–,66%
